Assay results as given in paper PMC3257218 (Journal of Medicinal Chemistry, 2011).
Residue numbers refer to the chain shown, from its start. Each block holds one compound with its values, some of them ahead of it.

Legend:
human OCT2 = target: T1, human OCT2 (Homo sapiens, UniProt O15244, S270A); experiment: ASP+ uptake inhibition in HEK293 cells stably expressing OCT2; conditions: for inhibition of OCT2 mediated transport: ASP+ 5 µM; for inhibition of renal OCT2 and MATE1 compared to hepatic OCT1: concentration-dependent inhibition, Figure 4C
T1 sequence (O15244 1-555 S270A): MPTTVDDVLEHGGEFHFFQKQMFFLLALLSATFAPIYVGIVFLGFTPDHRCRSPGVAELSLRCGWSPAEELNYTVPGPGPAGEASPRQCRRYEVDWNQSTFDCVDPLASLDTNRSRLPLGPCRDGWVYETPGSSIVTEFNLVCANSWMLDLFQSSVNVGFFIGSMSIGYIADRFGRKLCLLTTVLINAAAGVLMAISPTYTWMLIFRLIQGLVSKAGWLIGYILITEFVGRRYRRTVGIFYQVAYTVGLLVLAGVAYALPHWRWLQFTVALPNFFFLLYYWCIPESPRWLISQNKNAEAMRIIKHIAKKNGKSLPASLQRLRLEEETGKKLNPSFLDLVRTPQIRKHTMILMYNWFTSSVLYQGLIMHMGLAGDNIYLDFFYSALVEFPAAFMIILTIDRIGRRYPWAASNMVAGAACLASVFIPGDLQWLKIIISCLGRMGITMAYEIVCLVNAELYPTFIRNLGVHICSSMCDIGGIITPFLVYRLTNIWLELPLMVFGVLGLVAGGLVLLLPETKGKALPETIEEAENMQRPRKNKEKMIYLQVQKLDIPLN

MATE1 = target: T2, MATE1 (Homo sapiens, UniProt Q96FL8); experiment: ASP+ uptake inhibition in HEK293 cells stably expressing MATE1; assay type: cell-based; conditions: for inhibition potency for MATE1 versus other transporters of the panel: concentration-dependent inhibition, Figure 4C
T2 sequence (Q96FL8 1-570): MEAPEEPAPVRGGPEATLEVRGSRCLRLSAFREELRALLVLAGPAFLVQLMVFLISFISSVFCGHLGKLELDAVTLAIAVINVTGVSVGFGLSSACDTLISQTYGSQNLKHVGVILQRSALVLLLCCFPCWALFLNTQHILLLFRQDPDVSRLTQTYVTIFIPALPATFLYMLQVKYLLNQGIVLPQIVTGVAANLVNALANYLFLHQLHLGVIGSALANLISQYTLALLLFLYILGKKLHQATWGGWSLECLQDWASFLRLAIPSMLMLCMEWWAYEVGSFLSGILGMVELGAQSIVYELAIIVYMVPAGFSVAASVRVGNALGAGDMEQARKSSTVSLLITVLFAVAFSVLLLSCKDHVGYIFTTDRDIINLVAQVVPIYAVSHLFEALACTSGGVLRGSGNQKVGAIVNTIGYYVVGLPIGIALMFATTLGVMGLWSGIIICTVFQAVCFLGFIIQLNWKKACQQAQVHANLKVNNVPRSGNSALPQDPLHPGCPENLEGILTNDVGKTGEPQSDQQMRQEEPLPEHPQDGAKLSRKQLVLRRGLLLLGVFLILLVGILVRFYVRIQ

OCT2-A270S = target: T3, OCT2-A270S (Homo sapiens, UniProt O15244); experiment: ASP+ uptake inhibition in HEK293 cells stably expressing OCT2-A270S; assay type: cell-based; conditions: for affinity towards OCT2-A270S compared to reference protein: concentration-dependent inhibition, Figure 4C
T3 sequence (O15244 1-555): T1 sequence (O15244 1-555 S270A) with A270S

[1] = collected from the literature; cited from earlier work
MATE2-K = MATE2-K (Homo sapiens, UniProt Q86VL8); experiment: ASP+ uptake inhibition in HEK293 cells stably expressing MATE2-K; assay type: cell-based
MATE2-K, sequence (Q86VL8 1-566 isoform Q86VL8-3): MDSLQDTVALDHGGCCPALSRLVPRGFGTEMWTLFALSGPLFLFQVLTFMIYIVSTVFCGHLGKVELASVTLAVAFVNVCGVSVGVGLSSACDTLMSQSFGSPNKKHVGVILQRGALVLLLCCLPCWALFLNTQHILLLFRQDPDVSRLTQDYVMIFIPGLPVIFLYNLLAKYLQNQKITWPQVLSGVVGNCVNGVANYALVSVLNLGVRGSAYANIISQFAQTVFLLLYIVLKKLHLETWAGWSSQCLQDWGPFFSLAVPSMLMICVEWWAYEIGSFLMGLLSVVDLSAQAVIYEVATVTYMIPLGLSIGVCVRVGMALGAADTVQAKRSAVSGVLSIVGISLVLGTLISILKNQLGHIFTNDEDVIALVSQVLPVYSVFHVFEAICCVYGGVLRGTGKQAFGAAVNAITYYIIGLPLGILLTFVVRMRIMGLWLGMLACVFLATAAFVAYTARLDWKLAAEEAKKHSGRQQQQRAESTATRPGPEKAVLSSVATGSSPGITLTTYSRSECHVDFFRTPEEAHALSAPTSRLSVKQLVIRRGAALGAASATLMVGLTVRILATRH

human OCT1 = target: T4, human OCT1 (Homo sapiens, UniProt O15245); conditions: screen at 20 µM
T4 sequence (O15245 1-554): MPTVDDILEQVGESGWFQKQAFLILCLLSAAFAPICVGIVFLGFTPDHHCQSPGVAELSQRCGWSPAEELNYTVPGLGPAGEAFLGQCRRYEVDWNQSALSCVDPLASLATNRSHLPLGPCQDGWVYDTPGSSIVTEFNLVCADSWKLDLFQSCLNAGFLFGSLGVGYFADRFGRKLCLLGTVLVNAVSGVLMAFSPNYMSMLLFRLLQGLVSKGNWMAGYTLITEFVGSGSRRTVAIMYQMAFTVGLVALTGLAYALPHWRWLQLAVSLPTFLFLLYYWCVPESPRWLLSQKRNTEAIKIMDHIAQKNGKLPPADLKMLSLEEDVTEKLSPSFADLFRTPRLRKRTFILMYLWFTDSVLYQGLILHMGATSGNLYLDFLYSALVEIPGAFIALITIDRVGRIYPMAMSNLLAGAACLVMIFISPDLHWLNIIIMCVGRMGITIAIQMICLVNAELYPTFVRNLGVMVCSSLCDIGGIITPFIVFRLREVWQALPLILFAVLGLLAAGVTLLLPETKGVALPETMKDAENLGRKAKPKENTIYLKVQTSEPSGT

SMILES: CN(C)c1ccc(C=Cc2cc[n+](C)cc2)cc1 [ASP^+, 4-(4-(dimethylamino)styryl)-N-methylpyridinium]
Km (human OCT2; read-out: Km of ASP+ transport, OCT2 specific uptake, HEK293 cells): 36.4 ± 6.8 µM

inhibition of OCT2 mediated transport (human OCT2; inhibitor 20 µM): partial
SMILES: CN/C(=N\CCSCc1nc[nH]c1C)NC#N [Cimetidine]
inhibition potency for MATE1 versus other transporters of the panel (MATE1): considerably higher inhibition potency for MATE1 than for the other transporters in the panel | inhibition of transporter activity (MATE1; inhibitor 500 µM): complete inhibition of transporter activity | inhibition of transporter activity (OCT2-A270S; inhibitor 500 µM): complete inhibition of transporter activity | inhibition of OCT2 mediated transport (human OCT2; inhibitor 500 µM): complete inhibition of transporter activity

SMILES: CC(C)N(CCC(C(N)=O)(c1ccccc1)c1ccccn1)C(C)C (stereo not drawn) [Disopyramide]
PB, plasma protein binding [1]: 50%

SMILES: CN(C)CCCN1c2ccccc2CCc2ccccc21 [Imipramine]
affinity towards OCT2-A270S compared to reference protein (OCT2-A270S): lower affinity towards the genetic variant OCT2-A270S than to the reference protein | inhibition of renal OCT2 and MATE1 compared to hepatic OCT1 (human OCT2): preferential inhibition of the renal transporters OCT2 and MATE1 compared to the hepatic OCT1 | PB, plasma protein binding [1]: 90%

SMILES: Cc1nccn1CC1CCc2c(c3ccccc3n2C)C1=O (stereo not drawn) [Ondansetron]
inhibition potency for MATE1 versus other transporters of the panel (MATE1): considerably higher inhibition potency for MATE1 than for the other transporters in the panel | affinity towards OCT2-A270S compared to reference protein (OCT2-A270S): lower affinity towards the genetic variant OCT2-A270S than to the reference protein | inhibition of transporter activity (MATE2-K; inhibitor 250 µM): complete inhibition of transporter activity | inhibition of renal OCT2 and MATE1 compared to hepatic OCT1 (human OCT2): preferential inhibition of the renal transporters OCT2 and MATE1 compared to the hepatic OCT1

SMILES: COc1cc(C(=O)NS(=O)(=O)c2ccccc2C)ccc1Cc1cn(C)c2ccc(NC(=O)OC3CCCC3)cc12 [zafirlukast]
inhibition in specificity screen (MATE1) (MATE1; screen at 20 µM): showed affinity for all four organic cation transporters | inhibition in specificity screen (MATE2-K) (MATE2-K; screen at 20 µM): showed affinity for all four organic cation transporters | inhibition in specificity screen (OCT1) (human OCT1): showed affinity for all four organic cation transporters | inhibition in specificity screen (OCT2) (human OCT2; screen at 20 µM): showed affinity for all four organic cation transporters
